Where two headings read alike, the source gives them in different places.
Tests used:
TOV-112D (R175H) = assay: Cell viability assay (CellTiterGlo), TOV-112D; assay type: cell-based, human; details: for IC50: Homo sapiens, TOV112D, 72 h
Experimental: (§1) Figure 1 PG3 inhibits cell proliferation and growth in a p53-indepent manner. (A–E) Cell viability assay, dose response curves and IC50 value measurements in a panel of cancer cell lines and normal cells. Cells were treated with different concentrations of PG3, PG3-Oc (Oc), obatoclax (Ob), prodigiosin (P) or DMSO for 72 h. Luciferase activity was imaged by the IVIS Imaging System after treatment. Cell viability data were normalized to those of DMSO treatment control in each cell line and data analyses were performed using PRISM4 software. IC50 data are expressed as the mean ±SD (normal; n = 3).
as §1, with “2 p53-dependent inhibition of” for “1 PG3 inhibits”, “is only observed at specific concentrations. (A–J)” for “and growth in a p53-indepent manner. (A–E)”, “ZMC1, CP-313908, APR-246, Ellipticine, Nutalin-3a” for “PG3, PG3-Oc (Oc), obatoclax (Ob), prodigiosin (P)”
(§2) Cells were seeded in 96-well plates (6 × 10^3 cells/well). Cells were treated with different concentrations of compounds or dimethyl sulfoxide (DMSO) as a control for 72 hours. The cell viability was assessed by CellTiterGlo bioluminescent cell viability assay (Promega), following the manufacturer’s protocol. Bioluminescence imaging was measured using the IVIS imager. The percentage of cell viability (mean ± SEM) at each dose was calculated against the respective DMSO control. The IC50 values were determined from the sigmoidal dose-response curves using GraphPad Prism.

HCT116 (P53−/−) = assay: Cell viability assay (CellTiterGlo), HCT116 p53-/-; assay type: cell-based, human; details: Homo sapiens, HCT-116; 72 h, CellTiterGlo
Experimental: as §1
as §1, with “2 p53-dependent inhibition of” for “1 PG3 inhibits”, “is only observed at specific concentrations. (A–J)” for “and growth in a p53-indepent manner. (A–E)”, “ZMC1, CP-313908, APR-246, Ellipticine, Nutalin-3a” for “PG3, PG3-Oc (Oc), obatoclax (Ob), prodigiosin (P)”
as §2

[1] = system: MRC5 (human lung fibroblast cell with wild-type p53); assay: Cell viability assay (CellTiterGlo), MRC5 normal cells; assay type: cell-based; details: Homo sapiens, MRC5, 72 h, read-out: IC50 values, MRC5 (WT)
Experimental: as §1
as §1, with “2 p53-dependent inhibition of” for “1 PG3 inhibits”, “is only observed at specific concentrations. (A–J)” for “and growth in a p53-indepent manner. (A–E)”, “ZMC1, CP-313908, APR-246, Ellipticine, Nutalin-3a” for “PG3, PG3-Oc (Oc), obatoclax (Ob), prodigiosin (P)”
as §2

[2] = system: SW480 cells carrying a p53-responsive luciferase reporter; assay: p53-responsive reporter assay; assay type: cell-based, human; details: 1.11 μM, 6 hour and 15 hour time points
Experimental: SW480 cells carrying a p53-responsive luciferase reporter were used for assay of functional restoration of mutant p53. Cells were seeded in 96-well plates (5 × 10^4 cells/well) and were treated with compounds indicated for 6 and 15 h, respectively. Then, D-luciferin was added to each well with final concentration 100 μg/mL, and cells were imaged by using an IVIS Imaging System to detect luciferase activity.
p53-mutant SW480 human colon cancer cells, stably expressing a p53-responsive luciferase reporter, were used to assay functional restoration p53 pathway-dependent transcription in mutant p53-expressing tumor cells. Cells were seeded in 96-well plates (5 × 10^4 cells/well) and were treated with small-molecule compounds for 6 and 15 h, respectively. Then, D-luciferin was added to each well at a final concentration of 100 μg/mL, and cells were imaged by using an IVIS Imaging System (Xenogen) to detect luciferase activity.

DR5 = assay: Western blot, DR5 induction; assay type: cell-based, human; details: five cell lines, 24 h
Experimental: (§3) Figure 4 Activation of ATF4 and up-regulation of typical p53 target genes. (A–E) Western blot analysis of p53 protein levels and upregulation of ATF4, PUMA, DR5 and p21. Cells were treated for 24 h with indicated compounds, concentrations and cell lines. Abbreviations: S.E.: Short exposure; L.E.: Long exposure.
(§4) After treatment, protein lysates were collected for Western blot analysis. A total of 15 μg of protein was used for SDS-PAGE. After primary and secondary antibody incubations, the signal was detected by a chemiluminescence detection kit, imaged by Syngene (Imgen Technologies). Antibodies for NAG-1 (GDF15) and P53 were from Santa Cruz Biotechnology; for caspase 8, cleaved caspase 8, caspase 9, caspase 3, cleavage PARP, eIF2α, p-eIF2α (Ser51), CHOP, ATF4, DR5, and PUMA were from Cell Signaling Technology. Noxa and p21 were from Calbiochem. Ran was from BD Biosciences.

PUMA = assay: Western blot, PUMA induction; assay type: cell-based, human; details: five cell lines, 24 h
Experimental: as §3, §4

[3] = system: GCN2, PKR, eIF2α, ATF4, CHOP in HT29 cells; assay: Western blot, ISR kinases / eIF2α / ATF4 / CHOP; assay type: cell-based, human; details: HT29, 15 h
Summary of the method: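 HT29 cells treated with compound alone or with GSK2606414, TG or ONC201 for 15 h; further arms used siRNA knockdown (24 h) then 16 h treatment. Lysates (15 μg protein) analysed by SDS-PAGE Western blot with chemiluminescent detection.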

ALAS1, UROD = assay: Western blot, heme biosynthesis enzymes; assay type: cell-based, human
Experimental: Figure 8 Inhibition of heme biosynthesis leads to upregulation of ATF4. (A) HT29 cells were treated with SA and ONC201 for 20 hours. Western blotting was performed using the indicated antibodies. (B) HT29 cells were transfected with siCtrl, siHRI, siClpX, siALAS1, siClpX/siALAS1 and siClpX/siALAS1/siHRI for 48 hours. (C) HT29 cells were transfected with siCtrl, siLonP1, siClpP for 24 or 48 hours respectively, and then treated with ONC201 for 24 hours. (D) Proposed model of ONC201-induced cell apoptosis through ClpP/ALAS1/HRI/ATF4 axis. (E, F) Silencing of ClpP in HCT116 p53^−/− and MDA-MB-468 cells and then treated with PG3, PG3-Oc and ONC201. Western blot was performed using indicated antibodies.
as §4
Supplementary Figure 2: ROS and NO are not responsible for PG3-induced HRI activation. (A, B) cells were pre-treated
with ZnPP, L-NMMA, SA and NAC for 2 hours respectively, and then ONC201 or PG3 was added to the medium for 24 hour treatment.
Western blot was performed using indicated antibodies.
(1 picture or pasted object on this page, not shown here)

CCc1c(C)[nH]c(/C=C2\N=C(c3ccc[nH]3)C=C2OC)c1C [PG3]
IC50 (TOV-112D (R175H); CellTiterGlo, read-out: IC50 values, TOV-1120 (R175H) (converted)): 0.126 µM
IC50 (TOV-112D (R175H); unit inferred, 'within the nanomolar range', read-out: IC50 value, TOV-112D): 0.12 µM
fold less potent than PG3-Oc (TOV-112D (R175H); TOV-112D): 3.3 fold
IC50 (HCT116 (P53−/−)): 0.052 µM
IC50 [1]: 2.23 µM
p53-responsive reporter activity [2]: do not activate reporter activity
upregulation of DR5 (DR5): consistently induce upregulation
upregulation of PUMA (PUMA): consistently induce upregulation
phosphorylation of GCN2 and PKR [3]: does not increase phosphorylation
ALAS1 protein level (ALAS1, UROD; 24 hour treatment): does not lead to the downregulation of ALAS1
UROD protein levels (ALAS1, UROD; western blot): do not have any effects

Source: article PMC11407758, “Integrated stress response (ISR) activation and apoptosis through HRI kinase by PG3 and other p53 pathway-restoring cancer therapeutics” (Oncotarget, 2024)
